For 13 compounds, IC50 and Activity results are on record in ChEMBL document CHEMBL5030541, “Non-alkylator anti-glioblastoma agents induced cell cycle G2/M arrest and apoptosis: Design, in silico physicochemical and SAR studies of 2-aminoquinoline-3-carboxamides” (Bioorg Med Chem Lett, 2021).

The term IC50 denotes the concentration that inhibits the measured activity by half.

In experiment [1] the test system is U-87 MG. In words: Cytotoxicity against human U-87 MG cells assessed as inhibition of cell growth measured after 48 hrs by MTT assay. Format: functional, cell-based, U-87MG ATCC. For orientation: Tetrazolium dyes change colour on reduction, which living cells bring about.
Experiment [2] concerns A549. In words: Cytotoxicity against human A549 cells assessed as inhibition of cell growth measured after 48 hrs by MTT assay. Format: functional, cell-based. The conditions noted are these: A549, 48 h.
Experiment [3] concerns MKN-45. The experiment is described as follows: Cytotoxicity against human MKN-45 cells assessed as inhibition of cell growth measured after 48 hrs by MTT assay. The conditions noted are these: MKN-45, 48 h. It is filed as functional, cell-based.
Experiment [4] concerns HCT-116. In words: Cytotoxicity against human HCT-116 cells assessed as inhibition of cell growth measured after 48 hrs by MTT assay. It is filed as functional, cell-based. The conditions noted are these: HCT-116, 48 h.
Experiment [5] has as its system U-118-MG. The experiment is described as follows: Cytotoxicity against human U-118-MG cells assessed as inhibition of cell growth measured after 48 hrs by MTT assay. Format: functional, cell-based.
Experiment [6] has as its system U-87 MG. The experiment is described as follows: Induction of apoptosis in human U-87 MG cells assessed as live cells at 44 uM measured after 48 hrs by annexin V-FITC/PI staining based flow cytometry analysis (Rvb= 91.6%). It is filed as functional, U-87MG ATCC. (In flow cytometry, cells or beads pass a laser one at a time.)
In another experiment the test system is CCD-841CoN. In words: Cytotoxicity against human CCD-841CoN cells assessed as inhibition of cell growth measured after 48 hrs by MTT assay. Format: cell-based.
Experiment [7] has as its system U-87 MG. In words: Cytotoxicity against human U-87 MG cells assessed as inhibition of cell growth at 100 uM measured after 48 hrs by MTT assay. It is filed as functional, cell-based. The conditions noted are these: U-87MG ATCC.
Experiment [8] concerns U-118-MG. The experiment is described as follows: Effect on cell morphology in human U-118-MG cells assessed as appearance of round cells. It is filed as functional, cell-based.
For experiment [9], the system named is U-87 MG. In words: Induction of apoptosis in human U-87 MG cells assessed as early apoptotic cells at 44 uM measured after 48 hrs by annexin V-FITC/PI staining based flow cytometry analysis (Rvb= 6.21%). Format: functional, U-87MG ATCC.
In the next experiment the test system is U-251. In words: Cytotoxicity against human U-251 cells assessed as inhibition of cell growth measured after 48 hrs by MTT assay. Format: functional, cell-based. The conditions noted are these: U-251, 48 h.
Experiment [10] relates to U-118-MG. In words: Effect on cell morphology in human U-118-MG cells assessed as lose of adherence. Format: functional, cell-based.
The subject of experiment [11] is U-87 MG. The experiment is described as follows: Effect on cell morphology in human U-87 MG cells assessed as lose of adherence. Format: functional, cell-based. The conditions noted are these: U-87MG ATCC.
Experiment [12] deals with U-87 MG. The experiment is described as follows: Induction of apoptosis in human U-87 MG cells assessed as late apoptotic cells at 44 uM measured after 48 hrs by annexin V-FITC/PI staining based flow cytometry analysis (Rvb= 2.11%). Format: functional, U-87MG ATCC.
Experiment [13] relates to U-87 MG. In words: Induction of cell cycle arrest in human U-87 MG cells assessed as accumulation of cells at G2/M phase at 0.5 times IC50 measured after 48 hrs by PI staining based flow cytometry analysis (Rvb= 5.39%). It is filed as functional, U-87MG ATCC.
For experiment [14], the system named is U-87 MG. In words: Effect on cell morphology in human U-87 MG cells assessed as appearance of round cells. Format: functional, cell-based. The conditions noted are these: U-87MG ATCC.
For another experiment, the system named is L02. The experiment is described as follows: Cytotoxicity against human L02 cells assessed as inhibition of cell growth measured after 48 hrs by MTT assay. Format: cell-based. The conditions noted are these: L02, 48 h.
Another experiment has as its system NCM460. The experiment is described as follows: Cytotoxicity against human NCM460 cells assessed as inhibition of cell growth measured after 48 hrs by MTT assay. It is filed as cell-based. The conditions noted are these: NCM460, 48 h.
The subject of experiment [15] is U-87 MG. The experiment is described as follows: Induction of apoptosis in human U-87 MG cells assessed as dead cells at 44 uM measured after 48 hrs by Annexin V-FITC/PI staining based flow cytometry analysis (Rvb= 0.098%). Format: functional, U-87MG ATCC.
The subject of another experiment is A 172. The experiment is described as follows: Cytotoxicity against human A 172 cells assessed as inhibition of cell growth measured after 48 hrs by MTT assay. Format: functional, cell-based. The conditions noted are these: A 172, 48 h.
The test system of experiment [16] is HCT-116. The experiment is described as follows: Cytotoxicity against human HCT-116 cells assessed as inhibition of cell growth at 200 uM measured after 48 hrs by MTT assay. Format: functional, cell-based.
The subject of experiment [17] is A549. The experiment is described as follows: Cytotoxicity against human A549 cells assessed as inhibition of cell growth at 200 uM measured after 48 hrs by MTT assay. Format: functional, cell-based.
The test system of experiment [18] is U-87 MG. The experiment is described as follows: Cytotoxicity against human U-87 MG cells assessed as inhibition of cell growth at 200 uM measured after 48 hrs by MTT assay. Format: functional, cell-based. The conditions noted are these: U-87MG ATCC.
In experiment [19] the test system is MKN-45. In words: Cytotoxicity against human MKN-45 cells assessed as inhibition of cell growth at 200 uM measured after 48 hrs by MTT assay. Format: functional, cell-based.

The source made the active and inactive calls. The calls are words filed in the database; no cut-off is given here.

As to `Cn1nnc2c(C(N)=O)ncn2c1=O` [TEMOZOLOMIDE], the IC50 in the experiment on U-87 MG [1] is above 200 µM.
`Nc1nc2cc3c(cc2cc1C(=O)NCCN1C(=O)c2cccc4cccc(c24)C1=O)OCO3`: the IC50 in the experiment with A549 [2] is 73.4 µM; with U-87 MG [1], above 200 µM.
As for `Nc1nc2cc(Cl)ccc2cc1C(=O)NCc1cccnc1`, the IC50 is above 200 µM in the experiment with A549 [2], above 200 µM with MKN-45 [3], above 200 µM in the experiment on HCT-116 [4] and 125 µM with U-87 MG [1].
On to `COc1cc2cc(C(=O)NCCc3c[nH]c4ccccc34)c(N)nc2cc1OC`, for which the IC50 with U-118-MG [5] was determined as 29.2 µM; in the experiment with CCD-841CoN, 135 µM; with MKN-45 [3] it was 72.3 µM; in the experiment with U-251, 121 µM; in the experiment on U-87 MG [1], 43.6 µM; in the experiment with L02, 118 µM. Further, the concentration for half-maximal inhibition (IC50) with NCM460 stood at 222 µM; with A 172, 23.7 µM. The Activity was 5.65% in the experiment with U-87 MG [6]; 50.9% with U-87 MG [9]; 43% in the experiment on U-87 MG [12]; 23.14% in the experiment with U-87 MG [13]; 0.45% with U-87 MG [15]. In addition, the result in the experiment with U-87 MG [7], in the experiment with U-118-MG [8], with U-118-MG [10], with U-87 MG [11] and with U-87 MG [14] was Active.
In the case of `Nc1nc2cc3c(cc2cc1C(=O)NCc1cccnc1)OCO3`, the IC50 in the experiment with A549 [2] is above 200 µM; with MKN-45 [3], above 200 µM; in the experiment on HCT-116 [4], 163 µM; in the experiment on U-87 MG [1], 109 µM. Moreover, the outcome in the experiment on HCT-116 [16], in the experiment with A549 [17], in the experiment with U-87 MG [18] and in the experiment with MKN-45 [19] was inactive.
For `Nc1nc2cc3c(cc2cc1C(=O)NCc1ccccc1)OCO3`, the IC50 with A549 [2] was above 200 µM; in the experiment on MKN-45 [3], above 200 µM; in the experiment with HCT-116 [4] it was above 200 µM; with U-87 MG [1] it was 75.6 µM.
For `Nc1nc2ncccc2cc1C(=O)NCc1cccnc1`, the IC50 in the experiment with A549 [2] is above 200 µM; in the experiment on MKN-45 [3], above 200 µM; in the experiment on HCT-116 [4], above 200 µM; with U-87 MG [1], 303 µM.
Turning to `c1cc2cc3c(cc2nc1C1CC1)OCO3`, the outcome in the experiment with U-87 MG [7] was inactive. In the experiment on U-87 MG [1], the 50% inhibitory concentration (IC50) was above 200 µM.
For `Nc1nc2cc3c(cc2cc1C(=O)NCCc1c[nH]c2ccccc12)OCO3`, the IC50 with A549 [2] was above 200 µM; in the experiment on MKN-45 [3] it was 76.9 µM; in the experiment on HCT-116 [4], above 200 µM; in the experiment on U-87 MG [1], 45.5 µM.
Consider `Nc1nc2cc3c(cc2cc1C(=O)NCCc1c[nH]c2ccccc12)OCCO3`, for which, in the experiment on U-87 MG [1], the IC50 turned out to be 44.4 µM.
Regarding `COc1cc2nc(N)c(C(=O)NCCc3c[nH]c4ccccc34)cc2c(Cl)c1OC`, the IC50 in the experiment on MKN-45 [3] was found to be 75.1 µM; in the experiment with U-87 MG [1], 60.8 µM.
For the compound `C#CCNC(=O)c1cc2cc3c(cc2nc1N)OCO3`, the IC50 in the experiment on A549 [2] is 92 µM; in the experiment on MKN-45 [3], above 200 µM; in the experiment with HCT-116 [4], above 200 µM; in the experiment on U-87 MG [1] it was above 200 µM.
With `Nc1nc2cc3c(cc2cc1C(=O)NCC1CC1)OCO3`, the IC50 is above 200 µM in the experiment on A549 [2], above 200 µM with MKN-45 [3], above 200 µM with HCT-116 [4] and 77.2 µM in the experiment with U-87 MG [1].
